The text below walks through data of ChEMBL document CHEMBL4837181 (Eur J Med Chem, 2020).

The nature of data set [1]: Apparent oral clearance in male cynomolgus monkey at 75 mg/kg, po BID measured on day 8. Type of data set: ADME, organism-based, Macaca fascicularis. Particulars: in vivo; call rule not given here.
For data set [2], the target named is Cytochrome P450 3A4 (Homo sapiens, UniProt P08684). Briefly: Direct inhibition of CYP3A4 in human hepatocytes. Type of data set: ADME, cell-based, Hepatocyte.
The nature of data set [3]: Drug metabolism in cynomolgus monkey assessed as ratio of indoximod to parent compound at 75 to 675 mg/kg, po administered as single dose. The format is ADME, organism-based, Macaca fascicularis. The conditions noted are these: in vivo, dose 75-675 mg/kg.
The nature of data set [4]: Chemical stability of compound in PBS buffer assessed as compound remaining at pH 7.4 at 5 uM measured after 6 hrs by LC-MS/MS analysis. Type of data set: physicochemical. The conditions noted are these: read-out: Stabilty.
Data set [5] concerns the target T1, Solute carrier organic anion transporter family member 1B1 (Homo sapiens, UniProt Q9Y6L6).
T1 sequence (Q9Y6L6 whole entry): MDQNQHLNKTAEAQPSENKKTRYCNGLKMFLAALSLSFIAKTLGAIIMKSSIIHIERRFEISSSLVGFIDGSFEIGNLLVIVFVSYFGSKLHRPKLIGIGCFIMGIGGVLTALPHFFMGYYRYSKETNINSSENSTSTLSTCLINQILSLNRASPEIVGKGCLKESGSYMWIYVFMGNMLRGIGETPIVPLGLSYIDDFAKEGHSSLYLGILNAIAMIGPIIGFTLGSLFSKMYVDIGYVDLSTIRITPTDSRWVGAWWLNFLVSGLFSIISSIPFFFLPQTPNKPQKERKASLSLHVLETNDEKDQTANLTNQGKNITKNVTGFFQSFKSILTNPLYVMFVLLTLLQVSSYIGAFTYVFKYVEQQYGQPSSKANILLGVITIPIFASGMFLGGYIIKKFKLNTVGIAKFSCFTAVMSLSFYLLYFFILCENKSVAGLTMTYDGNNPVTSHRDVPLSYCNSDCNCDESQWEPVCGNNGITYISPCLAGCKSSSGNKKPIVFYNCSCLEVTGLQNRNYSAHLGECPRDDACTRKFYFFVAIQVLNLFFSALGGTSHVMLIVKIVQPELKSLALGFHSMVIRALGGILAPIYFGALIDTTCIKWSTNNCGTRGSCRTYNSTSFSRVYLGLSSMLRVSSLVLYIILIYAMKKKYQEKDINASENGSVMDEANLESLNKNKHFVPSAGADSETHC
Briefly: Inhibition of OATP1B1 (unknown origin) expressed in HEK293 cells. The format is cell-based.

Data set [6] is described as follows: Protein binding in human plasma. The conditions noted are these: read-out: PPB. The format is ADME, cell-free.
Data set [7] can be described thus: Chemical stability of compound in simulated gastric fluid assessed as compound remaining at 5 uM measured after 24 hrs by LC-MS/MS analysis. Type of data set: ADME, physicochemical. Particulars: read-out: Stabilty.
The nature of data set [8]: Toxicity in rat assessed as mortality at 150 to 180 mg/kg, po. Particulars: in vivo, dose 150-180 mg/kg. The format is organism-based.
Data set [9] can be described thus: Tmax in female cynomolgus monkey at 75 mg/kg, po measured on day 1. The format is ADME, organism-based, Macaca fascicularis. Particulars: in vivo.
The nature of data set [10]: Drug metabolism in cynomolgus monkey assessed as formation of M9 metabolite at 15 mg/kg, iv administered as single dose. Type of data set: ADME, organism-based, Macaca fascicularis. The conditions noted are these: in vivo.
For data set [11], the target named is Cytochrome P450 2C9 (Homo sapiens, UniProt P11712). Briefly: Inhibition of CYP2C9 in human hepatocytes. The format is ADME, cell-based, Hepatocyte.
Data set [12] is described as follows: Cmax in po BID dosed rat measured on day 28. Type of data set: ADME, organism-based. Details: route oral, dose 180 mg/kg. The conditions noted are these: in vivo, 180 mg/kg.
Data set [13] deals with T2, Cytochrome P450 2B6 (Homo sapiens, UniProt P20813).
T2 sequence (P20813 whole entry): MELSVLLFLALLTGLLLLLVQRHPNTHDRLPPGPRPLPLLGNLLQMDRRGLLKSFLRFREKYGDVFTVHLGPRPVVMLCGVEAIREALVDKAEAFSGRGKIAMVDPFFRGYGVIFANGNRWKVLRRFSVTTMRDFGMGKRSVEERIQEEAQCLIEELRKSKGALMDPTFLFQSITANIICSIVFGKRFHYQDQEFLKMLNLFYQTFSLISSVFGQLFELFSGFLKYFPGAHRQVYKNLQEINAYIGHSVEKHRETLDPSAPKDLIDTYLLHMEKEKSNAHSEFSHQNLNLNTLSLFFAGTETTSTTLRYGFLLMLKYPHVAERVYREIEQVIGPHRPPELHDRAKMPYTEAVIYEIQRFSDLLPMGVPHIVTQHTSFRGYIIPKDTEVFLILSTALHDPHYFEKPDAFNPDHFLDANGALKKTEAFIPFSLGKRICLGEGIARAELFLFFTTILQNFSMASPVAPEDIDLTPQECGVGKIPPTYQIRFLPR
Briefly: Induction of CYP2B6 in human hepatocytes. The format is ADME, cell-based, Hepatocyte.

Data set [14] is described as follows: Inhibition of P-gp transporter activity in MDR1-MDCK2 cells. Type of data set: cell-based, Canis lupus familiaris. Particulars: mdckii-mdr1.
For data set [15], the target named is T2, Cytochrome P450 2B6. Briefly: Inhibition of CYP2B6 in human hepatocytes. Type of data set: ADME, cell-based, Hepatocyte.
Data set [16] in a line: Solubility of the compound in buffer at pH 1.58 to 6.7. Type of data set: physicochemical.
The nature of data set [17]: Cmax in male rat at 150 mg/kg, po BID measured on day 28. The format is ADME, organism-based. Also noted: route oral, dose 150 mg/kg. The conditions noted are these: in vivo.
Data set [18] can be described thus: Cmax in female rat at 180 mg/kg, po BID measured on day 28. Type of data set: ADME, organism-based. The conditions noted are these: in vivo. Also noted: route oral, dose 180 mg/kg.
Data set [19] is described as follows: Clearance in female cynomolgus monkey at 15 mg/kg, iv measured on day 1. The format is ADME, organism-based, Macaca fascicularis. Particulars: in vivo, time 1 day.
Data set [20] can be described thus: AUC (0 to 24 hrs) in male cynomolgus monkey at 75 mg/kg, po measured on day 1. Details: time < 24 hr, route oral, dose 75 mg/kg. Type of data set: ADME, organism-based, Macaca fascicularis. Particulars: in vivo.
Data set [21] is described as follows: Solubility of compound at pH 7.4. The format is physicochemical. The conditions noted are these: buffer.
The nature of data set [22]: Average plasma concentration at steady state in mouse at 250 mg/kg administered bid. The format is ADME, organism-based. The conditions noted are these: in vivo.
Data set [23] in a line: Tmax in female cynomolgus monkey at 225 mg/kg, po measured on day 1. Type of data set: ADME, organism-based, Macaca fascicularis. The conditions noted are these: in vivo.
A short description of data set [24]: Stimulation of proliferation of CD8 positive T cells (unknown origin). The conditions noted are these: CD8-positive T cell. The format is functional, tissue-based.
A short description of data set [25]: Change in normalised AUC (infinity) in rat at 50 mg/kg, po measured upto 72 hrs by LC-MS/MS analysis. The format is ADME, organism-based. Particulars: in vivo.
Data set [26] is described as follows: Change in normalised Cmax in rat at 50 mg/kg, po measured upto 72 hrs by LC-MS/MS analysis. Type of data set: ADME, organism-based. The conditions noted are these: in vivo.

A value given as a limit tells only on which side of the number the result lay.

Sequence of Cytochrome P450 3A4 (P08684 whole entry): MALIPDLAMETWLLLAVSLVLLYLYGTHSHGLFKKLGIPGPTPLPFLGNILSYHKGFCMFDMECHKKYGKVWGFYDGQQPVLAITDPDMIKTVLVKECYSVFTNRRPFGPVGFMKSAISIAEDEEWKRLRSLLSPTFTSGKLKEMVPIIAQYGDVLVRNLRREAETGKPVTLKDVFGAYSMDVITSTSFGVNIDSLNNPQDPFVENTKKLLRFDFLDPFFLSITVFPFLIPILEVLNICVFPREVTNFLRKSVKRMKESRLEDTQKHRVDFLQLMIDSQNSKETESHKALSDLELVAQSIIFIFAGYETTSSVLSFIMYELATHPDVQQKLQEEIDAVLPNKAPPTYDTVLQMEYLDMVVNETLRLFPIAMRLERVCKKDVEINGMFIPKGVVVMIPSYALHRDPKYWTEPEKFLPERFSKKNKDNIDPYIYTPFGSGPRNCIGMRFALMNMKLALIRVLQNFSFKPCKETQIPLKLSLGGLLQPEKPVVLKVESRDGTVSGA
Sequence of Cytochrome P450 2C9 (P11712 whole entry): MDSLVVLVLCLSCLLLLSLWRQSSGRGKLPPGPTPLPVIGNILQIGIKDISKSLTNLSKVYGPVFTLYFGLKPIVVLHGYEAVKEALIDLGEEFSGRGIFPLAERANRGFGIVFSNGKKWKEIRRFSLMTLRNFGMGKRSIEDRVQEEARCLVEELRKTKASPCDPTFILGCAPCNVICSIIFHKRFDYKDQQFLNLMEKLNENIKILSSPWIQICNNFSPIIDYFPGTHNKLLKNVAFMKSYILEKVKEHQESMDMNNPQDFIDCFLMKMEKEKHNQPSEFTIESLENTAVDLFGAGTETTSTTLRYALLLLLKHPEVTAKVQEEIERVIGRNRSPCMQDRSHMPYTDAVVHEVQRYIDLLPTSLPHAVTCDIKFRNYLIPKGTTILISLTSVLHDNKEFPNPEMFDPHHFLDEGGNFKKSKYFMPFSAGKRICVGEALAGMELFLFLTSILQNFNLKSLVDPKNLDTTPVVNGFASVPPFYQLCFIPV

As usually defined, the CL/F is clearance divided by bioavailability, as obtained after extravascular dosing. For orientation: IC50 means the point on the concentration scale where inhibition reaches its midpoint. In general, Tmax refers to the time at which the peak concentration occurs. Usually Cmax stands for the maximum level reached in the sampled fluid or tissue. In general, solubility refers to the dissolved amount per volume that the medium holds. As to `CCOC(=O)[C@@H](Cc1cn(C)c2ccccc12)NC(=O)[C@@H](N)CC(C)C.Cl`, the CL/F in data set [1] is 25.6 mL/min/kg. Further, the IC50 was 5 µM in data set [2]; over 50 µM in data set [5]; over 50 µM in data set [11]; 27 µM in data set [14]; over 50 µM in data set [15]. Also, the Ratio in data set [3] turned out to be 690. The remaining at 6 h, 5 µM in data set [4] stood at 92%. Moreover, the fraction unbound in [6] came to 0.5. Also, the remaining at 24 h, 5 µM in data set [7] was 88%. Moreover, the Activity entry in [8] is on record as “Toxic”; in data set [13], “Not Active”. Besides, the time of peak concentration (Tmax) in data set [9] turned out to be 2 h. Moreover, the Drug metabolism entry in data set [10] was “Metabolite_Detected”. For the same molecule, the Cmax came out at 110 µM in data set [12], 169 µM in data set [17] and 170 µM in data set [18]. In data set [16], this molecule registered a solubility of 16.3 mg/mL.

By clearance is commonly meant the rate of elimination divided by the concentration. A word on the AUC(0-t): it is the area under the concentration-time curve up to a stated or last time point. By EC50 is commonly meant the concentration needed to bring the measured effect to its halfway point. With `Cn1cc(C[C@@H](N)C(=O)O)c2ccccc21` [INDOXIMOD], the clearance in data set [19] came to 10.2 mL/min/kg. In data set [20], the AUC(0-t) at 24 h was found to be 223 µM·h. The solubility in [21] was under 2 mg/mL. Besides, the Cave in data set [22] was determined as 29 µM. Besides, the time to peak (Tmax) in [23] turned out to be 1 h. In data set [24], this molecule came in with a concentration for a half-maximal effect (EC50) of at least 30 µM. The Activity in [25] and in [26] was 0% each time.
